US9833425B2, “Gentisic acid is used to improve systemic hemodynamics, hepatic mitochondrial function and lactate acidemia in patients with septic shock” (priority 2015, dated 2017)
“Also recorded” adds a separate entry of the source. Where two headings read alike, the source gives them in different places. Marks after values point to notes of the source that are not given here.

Tests used:
[1] = tested on: hepatic mitochondria; assay: Oxygen consumption rates of hepatic mitochondria harvested after in vivo treatment (Seahorse XF24); design: species or system dog; conditions: treated septic dogs; FCCP 4 uM
Description: After completion of the in-vivo measurements, we administered sodium pentobarbital (110 mg/kg) to euthanize the animal. In a subset of animals of each group, we immediately harvested a piece of liver and isolated the mitochondria as described by Schnaitman and Greenawalt (23). Briefly, we minced the extracted liver in mitochondrial isolation buffer (MSHE) that includes 70 mM sucrose, 210 mM mannitol, 5 mM HEPES, 1 mM EGTA, and fatty acid free bovine serum albumin (BSA). We then disrupted the tissue using a drill-driven glass/Teflon dounce homogenizer. We centrifuged the homogenate three times, after which we re-suspended the final pellet in a minimal volume of MSHE+BSA and determined protein (mg/ml). We diluted the mitochondrial preparation in cold mitochondrial assay solution (MAS) that contained 70 mM sucrose, 220 mM mannitol, 10 mM KH2PO4, 5 mM MgCl2, 2 mM HEPES, 1 mM EGTA, and BSA for plating directly onto the custom Seahorse 24-well culture dish (˜20 ug mitochondrial protein/50 ul per well; see further below). After centrifugation of the plate and addition of appropriate substrates, we viewed the mitochondria under a microscope to ensure consistent adherence to the well. We then transferred the plate to the XF24 Analyzer for initiation of the protocol as described below (17).
To examine mitochondrial function in this model, we used a novel new technology that is capable of measuring dynamic changes in mitochondrial function, not easily attainable by other technologies (17). The Seahorse® XF24 extracellular flux analyser (Seahorse Bioscience, MA, USA) refines the technology by which mitochondrial oxygen consumption can be measured. This technology uses a piston to reversibly enclose a small volume (7 ul) above the mitochondria that can monitor oxygen uptake in that volume for 2-5 min, then raises the piston, allowing the bulk incubation medium (˜1 ml) to re-equilibrate. The ability to make up to 4 additions during the experiment allows mitochondrial respiration to be measured under various metabolic conditions. This piece of equipment has never been used to measure mitochondrial function in SS.
In this protocol, we sequentially measured mitochondrial function under various metabolic conditions (17). To obtain basal OCR, we first added a substrate to the preparation that contained pyruvate (10 mM) and malate (2 mM). We then added ADP (adenosine-diphosphate; 4 mM) that allows ATP synthase to function, producing an increase in OCR (coupled OCR) that is termed “state3ADP”. When the ATP/ADP ratio approaches equilibrium, pmf rises, after which proton reentry through the synthase stops and respiration slows. We terminated coupled respiration (i.e. state3ADP) by the addition of the ATP synthase inhibitor oligomycin (2.0 uM) in which we achieved “stateoligomycin” where ATP recycling cannot contribute and there is a stable decrease in OCR. We then added the protonophore, FCCP (4 uM; carbonyl cyanide p-trifluoromethoxy-phenylhydrazone). FCCP leads to uncoupled respiration in which we previously titrated the concentration of FCCP to yield a maximal effect. In mitochondria in which ATP synthase activity is a limiting factor, uncoupled respiration may be greater than coupled respiration. […] We finally added rotenone (R; 2 uM) and antimycin A (AA; 2 uM) which are inhibitors of the electron transport chain (ETC) complexes, I and III, respectively. When added to the mitochondrial preparation, these inhibitors produce a marked decline in mitochondrial respiration since the electron transport chain is inhibited.
With each treatment group, we obtained measurements of basal OCR, coupled OCR (i.e. state3ADP), and maximal OCR. In addition, we calculated coupled and uncoupled respiratory control ratios from state3ADP/stateoligomycin and uncoupled respiration/state FCCP/stateoligomycin, respectively. […]

[2] = tested on: mitochondrial complex IV (cytochrome c oxidase); assay: Enzymatic activity of hepatic mitochondrial complex IV; assay type: biochemical, dog; conditions: hepatic mitochondria of treated septic dogs; mean ± SD
Source text: As part of our assessment of mitochondrial function, we also measured the enzymatic activity of hepatic mitochondrial complex IV based on the rationale of Levy et al (10), since these investigators considered that dysfunction of complex IV was the most important determinant of abnormal mitochondrial function in SS. We determined complex IV activity spectrophotometrically by a temperature-controlled Ultrospec™ 2100 ultraviolet-visible spectrophotometer (Biopharmacia Biotech, Uppsala, Sweden) (17). Complex IV activity was measured at 25° C. by monitoring the absorbance decrease of reduced cytochrome c at 550 nm.

[3] = tested on: canine model of septic shock (Pseudomonas aeruginosa); conditions: for Arterial pH / LD (lactate dehydrogenase) / Oxygen delivery: mean ± SD
Description: We used a bacteremic model of Pseudomonas aeruginosa in this study as previously described (20). We used this particular model, since we wanted to measure mitochondrial function and LA under conditions of an acute and intensive inflammatory response analogous to that which would occur in a severe bout of SS in the clinical condition. […] Over the course of the experiment, we studied the animals (18 to 26 kg) while anesthetized with sufentanil citrate (0.05-0.3 ug/kg/min) and midazolam (5 ug/kg/min), and while being ventilated receiving 100% oxygen to maintain arterial around PO2 ˜400 mmHg. We adjusted the ventilator rate over the course of the study to attenuate the development of the metabolic acidosis that is usually observed (20).
To assess hemodynamics in this model, we inserted vascular catheters under sterile conditions as previously described (20), after which we connected the catheters to pressure transducers (Cobe, Argon) that were referenced relative to the left atrium and connected to a chart recorder (Astro-Med, W Warwick, R.I.). To measure MAP, we inserted a polyethylene catheter into the right femoral artery, while to measure pulmonary vascular pressures, we inserted a Swanz-Ganz catheter (Edwards Lifesciences, Irvine, Calif.) by percutaneous techniques through the right jugular vein. From the Swanz-Ganz catheter, we obtained measurements of pulmonary arterial pressure (Ppa), wedge pressure (Pwp), and right atrial pressure (Rap), as well as determinations of thermodilution cardiac output (CO).
From the hemodynamic measurements, we calculated SV from CO/heart rates (HR), stroke work (SW) from [SV*(MAP−Pwp)], and systemic vascular resistance (SVR) from [(MAP-Rap)/CO)*80]. We also normalized measurements of SV, SW, and CO and organ oxygen delivery (DO2) to body weight. We calculated DO2 from CO×Hb×1.34 ml oxygen per gram of Hb, since Hb was 100% saturated at a PO2 of ˜400 mmHg. From the arterial catheter and distal port of the Swanz-Ganz catheter, we also took arterial and mixed venous blood samples, respectively, for analyses of PO2, PCO2, and pH.
In addition, we placed another polyethylene catheter into the left jugular vein, also by percutaneous techniques, for infusion of the bacteria and intravenous fluids and for obtaining blood chemistry and hematological samples. Since the baseline Pwp found in this model usually averages≈8-10 mmHg, we infused normal saline solution as necessary to maintain Pwp relatively constant over the duration of this study. […] The Clinical Chemistry Laboratory at the Health Sciences Centre performed the clinical laboratory tests.
We included 5 groups of animals in the initial phase of this study. These groups included a septic control group, a non-septic control group, a norepinephrine (NE) septic group, a gentisic acid sodium salt (GSS) septic group, and a GSS non-septic group. In each group, we made baseline measurements of hemodynamics and blood parameters after approximately 1 hr period of stability. In the septic groups, after initiation of the bacterial infusion, we repeated the measurements in the septic shock condition. […] In the septic control group, after the SS condition, we started an infusion of 5% dextrose in water (D5W) at approximately 40 ml/hr for the remainder of the study, since D5W was the diluent for both the NE and GSS treatments.
In all groups, we then made posttreatment measurements at 3 hrs and 5 hrs after completion of the septic shock/sham-shock determinations.
In this supplemental study, we examined the effect of gallic acid on hemodynamics and mitochondrial function in our Pseudomonas aeruginosa model in a manner identical to that described for GSS treatment.

[4] = septic dogs, 3 hrs posttreatment
[5] = septic dogs, 5 hrs posttreatment
[6] = septic dogs, baseline (before bacteria/treatment)
[7] = septic dogs, septic shock (before treatment)

**Q.** `NC[C@H](O)c1ccc(O)c(O)c1` [NE, norepinephrine] was tested. Which “maximal (uncoupled) respiration (OCR after FCCP) of hepatic mitochondria” value [1] did it give?
**A.** restore the increase in OCR in response to FCCP

**Q.** And the “enzymatic activity of mitochondrial complex IV” value [2]?
**A.** 3.89±0.33 umol/min/mg protein

**Q.** And the “effect of treatment on troponin (index of myocardial injury)” value ([3]; dog, in vivo)?
**A.** increased in the NE septic group

**Q.** What about the “effect of treatment on stroke work index” value ([3]; septic dogs, 3 hr and 5 hr vs septic control group, did not reach statistical significance) of the same molecule?
**A.** an increase in stroke work index

**Q.** And the “effect of treatment on systemic vascular resistance (SVR)” value ([3]; septic dogs, 3 hrs and 5 hrs posttreatment vs septic shock condition)?
**A.** increased SVR back to the baseline value; also recorded: an increase in SVR

**Q.** And the “Arterial pH” value [3, 4]?
**A.** 7.20 ± .04*^+$

**Q.** And the “LD (lactate dehydrogenase)” value [3, 4]?
**A.** 315 ± 113*^+$ IU

**Q.** What about the Oxygen delivery [3, 4] of the same molecule?
**A.** 29 ± 8 mL/min/kg

**Q.** And the “Arterial pH” value [3, 5]?
**A.** 7.16 ± 0.06*^+$

**Q.** What about the “LD (lactate dehydrogenase)” value [3, 5] of the same molecule?
**A.** 409 ± 167*^+$^ IU

**Q.** And the Oxygen delivery [3, 5]?
**A.** 28 ± 10 mL/min/kg

**Q.** And the “Arterial pH” value [3, 6]?
**A.** 7.38 ± .05

**Q.** What about the “LD (lactate dehydrogenase)” value [3, 6] of the same molecule?
**A.** 43 ± 23 IU

**Q.** And the Oxygen delivery [3, 6]?
**A.** 20 ± 3 mL/min/kg

**Q.** And the “effect of treatment on mean arterial pressure (MAP)” value ([3]; septic dogs, infusion started at septic shock condition, 3 hr and 5 hr post treatment)?
**A.** increased MAP back to the baseline value; also recorded: return in MAP to baseline

**Q.** And the “effect of treatment on blood lactate concentration” value ([3]; septic dogs, over the course of the study)?
**A.** serum lactate increased; also recorded: significantly increased

**Q.** And the “Arterial pH” value [3, 7]?
**A.** 7.26 ± .04*^+$

**Q.** And the “LD (lactate dehydrogenase)” value [3, 7]?
**A.** 177 ± 97*^+ IU

**Q.** What about the Oxygen delivery ([3]; septic dogs, septic shock condition (before treatment)) of the same molecule?
**A.** 26 ± 11 mL/min/kg

**Q.** And the “effect of treatment on oxygen delivery (DO2)” value ([3]; septic dogs, vs septic control group and gentisic septic group)?
**A.** increase in DO2
